Residues, ends and D or L forms follow the SMILES beside them.
Assays:
[1] = Solubility in water; assay type: physicochemical
[2] = test system: phage; test: Toxicity of hydrazines to phage, plaque forming assay; design: species or system bacteriophage
Description: In the reaction between phage diketone and hydrazine, some hydrazine derivatives cause toxicity to phage, leading to elimination of >99.999% of infective phage particles in less than 5 minutes (as determined by plaque forming assay). For example, treating phage with 2 mM phenyl hydrazine for 2 minutes decreased the number of infective particles from 10^5 to zero. The source and mechanism of toxicity was not obvious and was difficult to systematize: it depended on the concentration of hydrazine and its nature, as well as some sporadic factors (preparation of solution). Toxicity dependence on concentration of hydrazine was not linear. In many cases, hydrazine was lethal to phage eliminating all infective particles before the reaction was completed. […] Optimal location conditions between phage-diketone and hydrazine derivatives are in the presence of 1-2 mM metal chelator such as EDTA.

Structure (SMILES) | solubility in water [1] | decrease in the number of infective particles ([2]; 2 to 20 mM phenyl hydrazine in the presence of 1 to 2 mM EDTA, several hours) | number of infective particles after treatment ([2]; phage treated with 2 mM phenyl hydrazine for 2 minutes, starting number 10^5, no chelator)
CC(C)[C@H](NC(=O)[C@H](CS)NC(=O)[C@H](CCC(N)=O)NC(=O)[C@@H](N)CO)C(=O)N[C@@H](CCCNC(=N)N)C(=O)N[C@@H](CO)C(=O)N[C@@H](CS)C(=O)O [SQCVRSC] (H-SQCVRSC-OH; N-terminus and C-terminus assumed) | high |  | 
NNc1ccccc1 [phenyl hydrazine] |  | did not show any significant decrease | zero

From patent publication US12416101B2, “Genetically-encoded macrocyclic peptide libraries bearing a pharmacophore” (THE GOVERNORS OF THE UNIVERSITY OF ALBERTA, priority 2018, dated 2025)
